Literature values in patent US11441162B2, “Human gut microbiome-derived biosynthetic enzymes for production of fatty acid amides” (Massachusetts Institute of Technology, priority 2019, dated 2022).

Molecular target: T1, GPR119 (Homo sapiens, UniProt Q8TDV5)
T1 sequence (Q8TDV5 1-335): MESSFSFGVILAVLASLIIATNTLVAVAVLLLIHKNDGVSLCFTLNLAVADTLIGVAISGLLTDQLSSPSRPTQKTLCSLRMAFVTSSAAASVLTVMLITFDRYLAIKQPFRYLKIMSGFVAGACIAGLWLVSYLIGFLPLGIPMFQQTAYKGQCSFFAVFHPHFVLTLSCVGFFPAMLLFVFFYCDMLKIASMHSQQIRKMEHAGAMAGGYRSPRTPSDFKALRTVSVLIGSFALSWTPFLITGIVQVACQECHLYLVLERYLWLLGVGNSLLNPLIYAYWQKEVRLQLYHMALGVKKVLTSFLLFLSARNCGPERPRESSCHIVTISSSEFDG
Conditions: previously reported human microbiome-derived FAA GPCR modulator; read-out: GPR119 agonist at (previously reported); cited from earlier work

## CCCCCCCC/C=C\CCCCCCCC(=O)NC(CO)CO [oleoyl serinol]
  EC50: 7 µM
